Test results from ChEMBL document CHEMBL2146454, “2,6-Naphthyridines as potent and selective inhibitors of the novel protein kinase C isozymes” (Bioorg Med Chem Lett, 2011).

Assays:
[1] = target: Protein kinase C beta type (Homo sapiens, UniProt P05771); experiment: Inhibition of recombinant human PKCbeta1 assessed as [33P]-ATP incorporation into tridecapeptide substrate after 60 mins by scintillation proximity assay
[2] = target: Protein kinase C theta type (Homo sapiens, UniProt Q04759); experiment: Inhibition of recombinant human PKCtheta assessed as [33P]-ATP incorporation into tridecapeptide substrate after 60 mins by scintillation proximity assay
[3] = target: Protein kinase C eta type (Homo sapiens, UniProt P24723); experiment: Inhibition of recombinant human PKCeta assessed as [33P]-ATP incorporation into tridecapeptide substrate after 60 mins by scintillation proximity assay
[4] = target: T1, Protein kinase C epsilon type (Homo sapiens, UniProt Q02156); experiment: Inhibition of recombinant human PKCepsilon assessed as [33P]-ATP incorporation into tridecapeptide substrate after 60 mins by scintillation proximity assay
T1 sequence (Q02156 whole entry): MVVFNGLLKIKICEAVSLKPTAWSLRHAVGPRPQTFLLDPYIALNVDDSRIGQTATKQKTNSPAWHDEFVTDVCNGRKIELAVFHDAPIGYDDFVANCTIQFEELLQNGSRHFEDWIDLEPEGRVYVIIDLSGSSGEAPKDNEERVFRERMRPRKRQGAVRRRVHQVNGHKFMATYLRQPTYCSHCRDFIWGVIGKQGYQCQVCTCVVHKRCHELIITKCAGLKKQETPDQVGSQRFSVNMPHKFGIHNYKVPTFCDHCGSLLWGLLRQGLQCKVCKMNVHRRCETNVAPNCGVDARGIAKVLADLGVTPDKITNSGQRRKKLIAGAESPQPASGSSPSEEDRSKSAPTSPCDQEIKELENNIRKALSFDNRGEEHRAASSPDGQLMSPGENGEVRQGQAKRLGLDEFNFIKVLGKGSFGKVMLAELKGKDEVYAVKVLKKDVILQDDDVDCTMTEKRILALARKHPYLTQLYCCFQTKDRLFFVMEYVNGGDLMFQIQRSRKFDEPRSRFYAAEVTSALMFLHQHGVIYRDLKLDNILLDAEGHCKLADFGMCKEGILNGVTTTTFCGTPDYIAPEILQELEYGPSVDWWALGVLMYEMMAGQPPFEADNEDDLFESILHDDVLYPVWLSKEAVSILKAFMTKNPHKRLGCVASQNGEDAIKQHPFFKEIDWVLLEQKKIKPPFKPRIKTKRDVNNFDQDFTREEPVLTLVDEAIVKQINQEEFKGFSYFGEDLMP

[5] = target: Protein kinase C alpha type (Homo sapiens, UniProt P17252); experiment: Inhibition of recombinant human PKCalpha assessed as [33P]-ATP incorporation into tridecapeptide substrate after 60 mins by scintillation proximity assay
[6] = target: Protein kinase C delta type (Homo sapiens, UniProt Q05655); experiment: Inhibition of recombinant human PKCdelta assessed as [33P]-ATP incorporation into tridecapeptide substrate after 60 mins by scintillation proximity assay
[7] = Inhibition of antiCD3 and antiCD28 antibody-stimulated rat blood T lymphocyte proliferation incubated 1 hr before antibody challenge measured after 52 hrs by radioactive [3H]-thymidine incorporation assay; type: tissue-based; conditions: T-cell
[8] = Oral bioavailability in Lewis rat at 10 mg/kg; type: ADME, organism-based; conditions: in vivo
[9] = Lipophilicity, log P of the compound; type: physicochemical; conditions: octanol/water
[10] = Plasma protein binding in rat by rapid equilibrium dialysis method; type: ADME, cell-free; conditions: read-out: PPB (converted)
[11] = Clearance in Lewis rat at 5 mg/kg, iv; type: ADME, organism-based; set-up: dose 5 mg/kg, route intravenous; conditions: in vivo
[12] = Plasma protein binding in human by rapid equilibrium dialysis method; type: ADME, cell-free; conditions: read-out: PPB (converted)
[13] = Tmax in Lewis rat at 10 mg/kg, po; type: ADME, organism-based; set-up: dose 10 mg/kg, route oral; conditions: in vivo
[14] = Cmax in Lewis rat at 10 mg/kg, po; type: ADME, organism-based; set-up: dose 10 mg/kg, route oral; conditions: in vivo
Mus musculus [15] = species on record: Mus musculus; experiment: animal or person; type: functional; conditions: BALB/c, route oral
[16] = Octanol-water distribution coefficient, log D of the compound at pH 6.8; type: physicochemical
[17] = Elimination half life in Lewis rat at 5 mg/kg, iv; type: ADME, organism-based; set-up: dose 5 mg/kg, route intravenous; conditions: in vivo, read-out: beta t1/2 (converted)
[18] = Intrinsic aqueous solubility of the compound; type: physicochemical; conditions: read-out: Intrinsic_solubility
Mus musculus [19] = species on record: Mus musculus; experiment: animal or person; type: functional; conditions: BALB/c, route oral; remark: listed apart in the source
[20] = Volume of distribution at steady state in Lewis rat at 5 mg/kg, iv; type: ADME, organism-based; set-up: dose 5 mg/kg, route intravenous; conditions: in vivo, read-out: Vdss
[21] = AUC (infinity) in Lewis rat at 5 mg/kg, iv; type: ADME, organism-based; set-up: dose 5 mg/kg, route intravenous, time infinity; conditions: plasma
[22] = Dissociation constant, pKa of the compound; type: physicochemical
[23] = AUC (infinity) in Lewis rat at 10 mg/kg, po; type: ADME, organism-based; set-up: time infinity, dose 10 mg/kg, route oral; conditions: plasma

Sequence of Protein kinase C delta type (Q05655 whole entry): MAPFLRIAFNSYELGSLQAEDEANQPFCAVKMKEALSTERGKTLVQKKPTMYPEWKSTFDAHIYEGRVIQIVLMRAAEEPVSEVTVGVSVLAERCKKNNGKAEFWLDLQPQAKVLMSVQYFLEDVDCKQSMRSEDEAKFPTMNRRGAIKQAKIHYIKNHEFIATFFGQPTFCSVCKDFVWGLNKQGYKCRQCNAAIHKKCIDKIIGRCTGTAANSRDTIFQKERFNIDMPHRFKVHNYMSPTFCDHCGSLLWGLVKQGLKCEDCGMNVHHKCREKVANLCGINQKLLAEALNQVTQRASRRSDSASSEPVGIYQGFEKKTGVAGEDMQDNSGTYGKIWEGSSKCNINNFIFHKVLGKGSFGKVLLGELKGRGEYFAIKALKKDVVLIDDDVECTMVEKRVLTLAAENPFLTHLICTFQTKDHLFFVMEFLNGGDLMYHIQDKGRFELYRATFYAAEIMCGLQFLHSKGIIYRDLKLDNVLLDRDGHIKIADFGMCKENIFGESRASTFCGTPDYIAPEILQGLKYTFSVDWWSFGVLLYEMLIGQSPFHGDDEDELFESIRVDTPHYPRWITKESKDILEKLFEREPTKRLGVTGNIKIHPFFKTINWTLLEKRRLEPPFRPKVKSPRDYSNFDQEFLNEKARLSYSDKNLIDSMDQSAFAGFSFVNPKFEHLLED
Sequence of Protein kinase C beta type (P05771 whole entry): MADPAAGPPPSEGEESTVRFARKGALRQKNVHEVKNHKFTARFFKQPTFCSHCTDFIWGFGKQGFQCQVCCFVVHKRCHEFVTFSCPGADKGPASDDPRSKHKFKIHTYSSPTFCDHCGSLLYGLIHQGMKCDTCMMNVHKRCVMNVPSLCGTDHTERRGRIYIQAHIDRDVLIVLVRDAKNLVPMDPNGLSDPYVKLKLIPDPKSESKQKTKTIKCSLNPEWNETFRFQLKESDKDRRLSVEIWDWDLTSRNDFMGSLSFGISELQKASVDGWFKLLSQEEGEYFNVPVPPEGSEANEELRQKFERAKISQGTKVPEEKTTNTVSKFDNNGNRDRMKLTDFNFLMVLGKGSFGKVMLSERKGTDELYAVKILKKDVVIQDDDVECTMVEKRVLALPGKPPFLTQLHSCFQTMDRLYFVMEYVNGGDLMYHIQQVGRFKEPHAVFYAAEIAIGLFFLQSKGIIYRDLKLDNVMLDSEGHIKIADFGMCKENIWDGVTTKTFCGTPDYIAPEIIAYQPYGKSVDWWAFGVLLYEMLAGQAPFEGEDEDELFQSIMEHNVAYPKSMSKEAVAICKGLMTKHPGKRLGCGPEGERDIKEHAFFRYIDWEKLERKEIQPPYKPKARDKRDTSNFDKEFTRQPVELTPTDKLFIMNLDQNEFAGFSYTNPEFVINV
Sequence of Protein kinase C theta type (Q04759 whole entry): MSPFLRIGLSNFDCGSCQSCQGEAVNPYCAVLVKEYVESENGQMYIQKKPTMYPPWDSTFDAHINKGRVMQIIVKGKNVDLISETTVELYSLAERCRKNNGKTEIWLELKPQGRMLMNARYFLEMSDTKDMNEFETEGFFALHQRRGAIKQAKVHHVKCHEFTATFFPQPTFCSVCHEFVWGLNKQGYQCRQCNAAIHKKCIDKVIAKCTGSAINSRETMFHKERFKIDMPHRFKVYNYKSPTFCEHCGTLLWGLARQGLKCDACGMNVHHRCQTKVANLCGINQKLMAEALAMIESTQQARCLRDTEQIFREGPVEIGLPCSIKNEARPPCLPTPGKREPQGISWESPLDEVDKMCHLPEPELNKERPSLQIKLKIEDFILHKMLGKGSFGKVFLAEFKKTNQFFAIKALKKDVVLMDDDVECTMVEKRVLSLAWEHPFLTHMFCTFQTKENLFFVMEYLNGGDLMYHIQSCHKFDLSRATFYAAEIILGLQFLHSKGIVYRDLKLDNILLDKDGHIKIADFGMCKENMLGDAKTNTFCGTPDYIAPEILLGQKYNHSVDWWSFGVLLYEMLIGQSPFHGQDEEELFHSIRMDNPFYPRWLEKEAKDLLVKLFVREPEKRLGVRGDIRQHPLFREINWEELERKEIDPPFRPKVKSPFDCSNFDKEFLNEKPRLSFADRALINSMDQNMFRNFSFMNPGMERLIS
Sequence of Protein kinase C eta type (P24723 whole entry): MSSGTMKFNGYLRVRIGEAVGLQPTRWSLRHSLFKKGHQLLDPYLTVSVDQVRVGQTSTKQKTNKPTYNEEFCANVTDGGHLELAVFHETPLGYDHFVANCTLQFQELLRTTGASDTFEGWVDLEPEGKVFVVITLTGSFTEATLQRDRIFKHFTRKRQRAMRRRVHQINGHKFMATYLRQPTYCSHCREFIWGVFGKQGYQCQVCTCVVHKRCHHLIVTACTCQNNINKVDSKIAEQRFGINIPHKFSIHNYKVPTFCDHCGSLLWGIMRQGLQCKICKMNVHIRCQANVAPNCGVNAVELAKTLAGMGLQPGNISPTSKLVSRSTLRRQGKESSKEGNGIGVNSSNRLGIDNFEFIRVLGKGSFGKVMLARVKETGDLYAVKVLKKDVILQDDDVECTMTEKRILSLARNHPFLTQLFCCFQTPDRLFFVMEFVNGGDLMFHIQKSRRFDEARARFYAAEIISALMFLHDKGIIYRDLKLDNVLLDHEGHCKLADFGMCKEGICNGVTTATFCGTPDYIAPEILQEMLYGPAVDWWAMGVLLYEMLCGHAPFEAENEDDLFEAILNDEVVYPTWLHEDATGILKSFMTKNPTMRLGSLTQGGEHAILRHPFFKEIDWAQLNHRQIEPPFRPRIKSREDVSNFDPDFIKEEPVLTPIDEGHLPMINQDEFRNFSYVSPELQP

SMILES | IC50 [1] | IC50 [2] | IC50 [3] | IC50 [4] | IC50 [5] | IC50 [6] | also measured
NCCNc1nc(-c2ccncc2)cc2cnccc12 | 0.859 µM |  |  |  |  |  | 
c1cc(-c2cc3cnccc3c(N3CCNCC3)n2)ccn1 | 0.823 µM | 0.109 µM | 0.006 µM | 0.008 µM | > 1 µM |  | 
NCCNc1nc(-c2ccncc2)cc2ccccc12 | > 1 µM | > 1 µM | 0.743 µM | 0.877 µM | > 1 µM | > 1 µM | 
NCCNc1nc(-c2ccncc2)cc2ncccc12 | > 1 µM | > 1 µM | 0.401 µM | 0.929 µM | > 1 µM | > 1 µM | 
NCCNc1nc(-c2ccncc2)cc2ccncc12 | > 1 µM | > 1 µM | > 1 µM | > 1 µM | > 1 µM | > 1 µM | 
NCCNc1cc(-c2ccncc2)cc2cnccc12 | > 1 µM | 0.355 µM | 0.054 µM | 0.044 µM | > 1 µM | 0.157 µM | IC50 [7]: 1.04 µM
NCCNc1nc(-c2ccncc2)nc2cnccc12 | > 1 µM | > 1 µM | 0.027 µM | 0.038 µM | > 1 µM | 0.102 µM | 
NCCOc1nc(-c2ccncc2)cc2cnccc12 | > 1 µM | 0.948 µM | 0.082 µM | 0.12 µM | > 1 µM | 0.703 µM | 
C[C@H](N)CNc1nc(-c2ccncc2)cc2cnccc12 | 0.378 µM | 0.055 µM | 0.002 µM | 0.005 µM | 0.829 µM | 0.008 µM | bioavailability [8]: 20%; logP [9]: 2.2; fraction unbound [10]: 0.37; clearance [11]: 2.94 L/h/kg; fraction unbound [12]: 0.42; Tmax [13]: 2 h; IC50 [7]: 0.138 µM; Cmax [14]: 0.053 µg/mL; inhibition in vivo at 100 mg/kg (Mus musculus [15]): 70%; logD [16]: -0.3; half-life [17]: 8.1 h; solubility [18]: > 0.4 mg/mL; inhibition in vivo at 50 mg/kg (Mus musculus [19]): 37%; Vd [20]: 14 L/kg; AUC(0-inf) [21]: 1.77 µg·h/mL; pKa [22]: 9; AUC(0-inf) [23]: 0.712 µg·h/mL
NC(CNc1nc(-c2ccncc2)cc2cnccc12)Cc1ccccc1 (stereo not given) | > 1 µM | > 1 µM | 0.452 µM | 0.403 µM | 0.818 µM | 0.932 µM | 
CN(CCN)c1nc(-c2ccncc2)cc2cnccc12 | > 1 µM | 0.35 µM | 0.034 µM | 0.024 µM | > 1 µM | 0.371 µM | 
CNCCNc1nc(-c2ccncc2)cc2cnccc12 | > 1 µM | 0.997 µM | 0.093 µM | 0.079 µM | > 1 µM | 0.254 µM | 
c1cc(-c2cc3cnccc3c(N3CCCNCC3)n2)ccn1 | 0.661 µM | 0.077 µM | 0.004 µM | 0.007 µM | 0.433 µM | 0.063 µM | 
NC1CCCN(c2nc(-c3ccncc3)cc3cnccc23)C1 (stereo not given) | 0.865 µM | 0.132 µM | 0.013 µM | 0.008 µM | 0.771 µM | 0.214 µM | 
NCCCNc1nc(-c2ccncc2)cc2cnccc12 | 0.779 µM | 0.097 µM | 0.01 µM | 0.013 µM | 0.676 µM | 0.053 µM | 
OCCNc1nc(-c2ccncc2)cc2cnccc12 | > 1 µM | 0.743 µM | 0.188 µM | 0.081 µM | > 1 µM | 0.635 µM | 
O=C1CN(c2nc(-c3ccncc3)cc3cnccc23)CCN1 | > 1 µM | > 1 µM | 0.735 µM | 0.802 µM | > 1 µM | > 1 µM | 
CC(C)(N)CNc1nc(-c2cccnc2)cc2cnccc12 | > 1 µM | > 1 µM | > 1 µM | > 1 µM | > 1 µM | > 1 µM | 
CC(C)(N)CNc1nc(-c2ccnc(N)c2)cc2cnccc12 | > 1 µM | 0.496 µM | 0.06 µM | 0.147 µM | 0.378 µM | 0.294 µM | 
CC(C)Nc1cc(-c2cc3cnccc3c(NCC(C)(C)N)n2)ccn1 | > 1 µM | > 1 µM | 0.862 µM | > 1 µM | > 1 µM | > 1 µM | 
CC(C)(N)CNc1nc(-c2ccncc2F)cc2cnccc12 | 0.961 µM | 0.14 µM | 0.018 µM | 0.062 µM | > 1 µM | 0.124 µM | 
CC(C)(N)CNc1nc(-c2ccncc2Cl)cc2cnccc12 | > 1 µM | 0.093 µM | 0.015 µM | 0.047 µM | > 1 µM | 0.221 µM | 
Cc1cnccc1-c1cc2cnccc2c(NCC(C)(C)N)n1 | > 1 µM | 0.738 µM | 0.052 µM | 0.133 µM | > 1 µM | 0.386 µM | 
